Columns and labels:
TNF-α mRNA = assay: Inhibition of LPS-induced TNF-α expression in PMA differentiated THP-1 cells; type: cell-based, Human; conditions: LPS (1 ug/ml) and compound for 4 hours, LPS alone as 100%
Protocol: The purpose of the present study was to determine the inhibition of lipopolysaccharide(LPS)-induced TNF-α expression in phorbol merstyl ester (PMA) differentiated THP-1 cells.
Human monocytic leukaemia cell line (THP-1), differentiated into macrophage-like cells by PMA treatment was employed. Differentiated cells were treated with either LPS (1 ug/ml) alone or with LPS (1 ug/ml) and compound for 4 hours. Total RNA was isolated and expression of TNF-αmRNA along-with expression of 18S rRNA was monitored by real-time PCR. TNF-α mRNA expression was normalized relative to the expression of 18S rRNA Considering TNF-α expression for cells treated with LPS alone as 100%; the results for test compounds were expressed as % inhibition of TNF-α expression and are as shown in Table 4

HSP70b mRNA = assay: Cellular expression of HSP-70 mRNA in primary mixed neurons (real-time PCR); type: cell-based; conditions: fold induction of HSP70b mRNA relative to vehicle treated control; primary mixed neurons from neonatal rat cerebellum; 4 hours; normalized to 18S rRNA
Protocol: Experiments set forth in this section were conducted to determine whether the compounds of the present invention are able to elevate the expression of HSP-70 gene in cells.
Hela cell-line or primary mixed neurons derived from neonatal rat cerebellum were employed. Induction was carried out for the indicated dose(s) for 4 hours duration and total RNA was isolated. Expression of HSP70b mRNA along-with expression of 18S rRNA was monitored by real-time PCR. HSP70b mRNA expression was normalized relative to the expression of 18S rRNA.
The results for test compounds were expressed as fold induction of HSP-70 mRNA relative to vehicle treated control and are as shown in Table 2 & 3.

CC1(C)CN(Cc2ccccc2)CC(=Cc2ccccn2)C1=O [Compound 1, 1-Benzyl-3,3-dimethyl-5-[1-pyridin-2-yl-methylidene]-piperidin-4-one]
TNF-alpha Inhibition (TNF-α mRNA): (++++) (>80%)

CC1(C)CN(C(=O)OCc2ccccc2)CC(=Cc2ccccn2)C1=O [Compound 2, 3,3-Dimethyl-4-oxo-5-[1-pyridin-2-yl-methylidene]-piperidine-1-carboxylic acid benzyl ester]
TNF-alpha Inhibition (TNF-α mRNA): (+++) (61-80%)

CC1(C)CN(Cc2ccccc2)CC(=Cc2ccc(C(=O)N3CCOCC3)cc2)C1=O [Compound 7, 1-Benzyl-3,3-dimethyl-5-[1-[4-(morpholine-4-carbonyl)-phenyl]-methylidene]-piperidin-4-one]
TNF-alpha Inhibition (TNF-α mRNA): (+++) (61-80%)

CSc1ccc(C=C2CN(Cc3ccccc3)CC(C)(C)C2=O)cc1 [Compound 8, 1-Benzyl-3,3-dimethyl-5-[1-(4-methylsulfanyl-phenyl)-methylidene]-piperidin-4-one]
TNF-alpha Inhibition (TNF-α mRNA): (++++) (>80%)

CSc1ccc(C2/C(=C\c3cccc(N4CCOCC4)n3)C(=O)C(C)(C)CN2Cc2ccccc2)cc1 (centres unmarked) [Compound 42, 1-Benzyl-5,5-dimethyl-2-(4-methylsulfanyl-phenyl)-3-[1-(6-morpholin-4-yl-pyridin-2-yl)-meth-(E)-ylidene]-piperidin-4-one]
HSP Induction in mixed neuron (HSP70b mRNA): (+++) (9-16 fold)
TNF-alpha Inhibition (TNF-α mRNA): (++) (41-60%)

CC1(C)CN(Cc2ccccc2)C(c2ccc(C(F)(F)F)cc2)C(=Cc2cccc(N3CCOCC3)n2)C1=O (centres unmarked) [Compound 43, 1-Benzyl-5,5-dimethyl-3-[1-(6-morpholin-4-yl-pyridin-2-yl)-methylidene]-2-(4-trifluoromethyl-phenyl)-piperidin-4-one]
HSP Induction in mixed neuron (HSP70b mRNA): (+++) (9-16 fold)
TNF-alpha Inhibition (TNF-α mRNA): (++) (41-60%)

CC1(C)CN(Cc2ccccc2)C(c2ccc(Cl)c(Cl)c2)C(=Cc2ccccn2)C1=O (centres unmarked) [Compound 45, 1-Benzyl-2-(3,4-dichloro-phenyl)-5,5-dimethyl-3-[1-pyridin-2-yl-methylidene]-piperidin-4-one]
HSP Induction in mixed neuron (HSP70b mRNA): (++) (5-8 fold)

CSc1ccc(C2C(=Cc3ccccn3)C(=O)C(C)(C)CN2Cc2ccccc2)cc1 (centres unmarked) [Compound 46, 1-Benzyl-5,5-dimethyl-2-(4-methylsulfanyl-phenyl)-3-[1-pyridin-2-yl-methylidene]-piperidin-4-one]
HSP Induction in mixed neuron (HSP70b mRNA): (+++) (9-16 fold)
TNF-alpha Inhibition (TNF-α mRNA): (++) (41-60%)

COc1ccc(CN2CC(C)(C)C(=O)C(=Cc3ccccn3)C2c2ccccc2)cc1 (centres unmarked) [Compound 47, 1-(4-Methoxy-benzyl)-5,5-dimethyl-2-phenyl-3-[1-pyridin-2-yl-methylidene]-piperidin-4-one]
HSP Induction in mixed neuron (HSP70b mRNA): (++++) (>16 fold)
TNF-alpha Inhibition (TNF-α mRNA): (+++) (61-80%)

CC1(C)CN(Cc2cccs2)C(c2ccccc2F)C(=Cc2cccc(N3CCOCC3)n2)C1=O (centres unmarked) [Compound 57, 2-(2-Fluoro-phenyl)-5,5-dimethyl-3-[1-(6-morpholin-4-yl-pyridin-2-yl)-methylidene]-1-thiophen-2-ylmethyl-piperidin-4-one]
HSP Induction in mixed neuron (HSP70b mRNA): (+) (2-4 fold)

CC1(C)CN(Cc2cccs2)C(c2ccccc2F)C(=Cc2ccccn2)C1=O (centres unmarked) [Compound 58, (2-Fluoro-phenyl)-5,5-dimethyl-3-[1-pyridin-2-yl-methylidene]-1-thiophen-2-ylmethyl-piperidin-4-one]
HSP Induction in mixed neuron (HSP70b mRNA): (+) (2-4 fold)

COc1ccc(CN2CC(C)(C)C(=O)C(=Cc3cccc(N4CCOCC4)n3)C2c2ccccc2)cc1 (centres unmarked) [Compound 62, 1-(4-Methoxy-benzyl)-5,5-dimethyl-3-[1-(6-morpholin-4-yl-pyridin-2-yl)-methylidene]-2-phenyl-piperidin-4-one]
HSP Induction in mixed neuron (HSP70b mRNA): (+) (2-4 fold)

Cc1cc(N2CC(=Cc3ccccn3)C(=O)C(C)(C)C2)no1 [Compound 64, 3,3-Dimethyl-1-(5-methyl-isoxazol-3-yl)-5-[1-pyridin-2-yl-methylidene]-piperidin-4-one]
HSP Induction in mixed neuron (HSP70b mRNA): (++++) (>16 fold)

COc1ccc(CC2N(C(=O)NCc3ccccc3)CC(=Cc3ccccn3)C(=O)C2(C)C)cc1 (centres unmarked) [Compound 66, 2-(4-Methoxy-benzyl)-3,3-dimethyl-4-oxo-5-[1-pyridin-2-yl-methylidene]-piperidine-1-carboxylic acid benzylamide]
HSP Induction in mixed neuron (HSP70b mRNA): (++) (5-8 fold)

CC1(C)CN(Cc2ccc(F)cc2)CC(=Cc2cccc(N3CCOCC3)n2)C1=O [Compound 73, 1-(4-Fluoro-benzyl)-3,3-dimethyl-5-[1-(6-morpholin-4-yl-pyridin-2-yl)-methylidene]-piperidin-4-one]
HSP Induction in mixed neuron (HSP70b mRNA): (+) (2-4 fold)

CC1(C)CN(Cc2ccc(F)cc2)C(c2ccccc2)C(=Cc2ccccn2)C1=O (centres unmarked) [Compound 76, 1-(4-Fluoro-benzyl)-5,5-dimethyl-2-phenyl-3-[1-pyridin-2-yl-methylidene]-piperidin-4-one]
HSP Induction in mixed neuron (HSP70b mRNA): (+) (2-4 fold)

CC1(C)CN(Cc2ccc(F)cc2)C(c2ccccc2)C(=Cc2cccc(N3CCOCC3)n2)C1=O (centres unmarked) [Compound 81, 1-(4-Fluoro-benzyl)-5,5-dimethyl-3-[1-(6-morpholin-4-yl-pyridin-2-yl)-methylidene]-2-phenyl-piperidin-4-one]
HSP Induction in mixed neuron (HSP70b mRNA): (+) (2-4 fold)

COc1ccc(CN2CC(C)(C)C(=O)C(=Cc3cccc(N4CCOCC4)n3)C2c2ccccc2F)cc1 (centres unmarked) [Compound 86, 2-(2-Fluoro-phenyl)-1-(4-methoxy-benzyl)-5,5-dimethyl-3-[1-(6-morpholin-4-yl-pyridin-2-yl)-methylidene]-piperidin-4-one]
HSP Induction in mixed neuron (HSP70b mRNA): (+) (2-4 fold)

COc1ccc(C2C(=Cc3cccc(N4CCOCC4)n3)C(=O)C(C)(C)CN2Cc2ccccc2)c(F)c1 (centres unmarked) [Compound 92, 1-Benzyl-2-(2-fluoro-4-methoxy-phenyl)-5,5-dimethyl-3-[1-(6-morpholin-4-yl-pyridin-2-yl)-methylidene]-piperidin-4-one]
HSP Induction in mixed neuron (HSP70b mRNA): (++) (5-8 fold)

CC1(C)CN(CCc2ccccc2)C(c2ccccc2)C(=Cc2ccccn2)C1=O (centres unmarked) [Compound 94, 5,5-Dimethyl-1-phenethyl-2-phenyl-3-[1-pyridin-2-yl-methylidene]-piperidin-4-one]
HSP Induction in mixed neuron (HSP70b mRNA): (+) (2-4 fold)

CC1(C)CN(CCc2ccccc2)C(c2ccccc2)C(=Cc2cccc(N3CCOCC3)n2)C1=O (centres unmarked) [Compound 95, 5,5-Dimethyl-3-[1-(6-morpholin-4-yl-pyridin-2-yl)-methylidene]-1-phenethyl-2-phenyl-piperidin-4-one]
HSP Induction in mixed neuron (HSP70b mRNA): (++) (5-8 fold)

Cc1ccc(CN2CC(C)(C)C(=O)C(=Cc3cccc(N4CCOCC4)n3)C2c2ccccc2)cc1 (centres unmarked) [Compound 232, 5,5-Dimethyl-1-(4-methyl-benzyl)-3-[1-(6-morpholin-4-yl-pyridin-2-yl)-methylidene]-2-phenyl-piperidin-4-one]
HSP Induction in mixed neuron (HSP70b mRNA): (++) (5-8 fold)
